Results taken from ChEMBL document CHEMBL1201862, “PubChem BioAssay data set” (2004).
Active and inactive are the calls of the source.

Tests used:
[1] = target: Cytochrome P450 2C19 (Homo sapiens, UniProt P33261); test: Cytochrome panel assay with activity outcomes. Panel member name: p450-cyp2c19 Compounds with AC50 equal or less than 10 uM are considered active; type: functional
[2] = target: Cytochrome P450 2D6 (Homo sapiens, UniProt P10635);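 note: CYP2D6 member of a cytochrome P450 panel assay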
[3] = target: T1, Cytochrome P450 1A2 (Homo sapiens, UniProt P05177)
T1 sequence (P05177 whole entry): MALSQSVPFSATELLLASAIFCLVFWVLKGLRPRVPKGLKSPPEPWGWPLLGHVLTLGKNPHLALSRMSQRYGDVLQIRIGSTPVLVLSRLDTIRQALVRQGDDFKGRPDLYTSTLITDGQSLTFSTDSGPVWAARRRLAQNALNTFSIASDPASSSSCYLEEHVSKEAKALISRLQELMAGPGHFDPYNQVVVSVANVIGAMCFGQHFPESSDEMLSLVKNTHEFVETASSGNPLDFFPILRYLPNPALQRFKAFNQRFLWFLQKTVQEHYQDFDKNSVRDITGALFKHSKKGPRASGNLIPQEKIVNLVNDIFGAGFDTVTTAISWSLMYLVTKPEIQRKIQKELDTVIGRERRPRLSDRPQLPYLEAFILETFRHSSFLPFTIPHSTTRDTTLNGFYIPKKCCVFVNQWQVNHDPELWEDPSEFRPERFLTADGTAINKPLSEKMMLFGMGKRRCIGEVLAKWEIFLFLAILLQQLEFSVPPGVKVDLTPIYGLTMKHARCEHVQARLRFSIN

[4] = target: Cytochrome P450 3A4 (Homo sapiens, UniProt P08684);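 note: CYP3A4 tested as one member of a cytochrome P450 panel screen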
[5] = target: T2, Heat shock factor protein 1 (Mus musculus, UniProt P38532); test: decrease of HSF1-responsive luciferase luminescence – cell-based, NIH3T3, dose retest, confirmation (AID 2382); type: functional;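 note: NIH3T3 fibroblasts with HSF1-driven luciferase reporter stressed by proteasome inhibitor MG132; luminescence from HSF1-driven luciferase expression after 8 hours of MG132 stress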
T2 sequence (P38532 whole entry): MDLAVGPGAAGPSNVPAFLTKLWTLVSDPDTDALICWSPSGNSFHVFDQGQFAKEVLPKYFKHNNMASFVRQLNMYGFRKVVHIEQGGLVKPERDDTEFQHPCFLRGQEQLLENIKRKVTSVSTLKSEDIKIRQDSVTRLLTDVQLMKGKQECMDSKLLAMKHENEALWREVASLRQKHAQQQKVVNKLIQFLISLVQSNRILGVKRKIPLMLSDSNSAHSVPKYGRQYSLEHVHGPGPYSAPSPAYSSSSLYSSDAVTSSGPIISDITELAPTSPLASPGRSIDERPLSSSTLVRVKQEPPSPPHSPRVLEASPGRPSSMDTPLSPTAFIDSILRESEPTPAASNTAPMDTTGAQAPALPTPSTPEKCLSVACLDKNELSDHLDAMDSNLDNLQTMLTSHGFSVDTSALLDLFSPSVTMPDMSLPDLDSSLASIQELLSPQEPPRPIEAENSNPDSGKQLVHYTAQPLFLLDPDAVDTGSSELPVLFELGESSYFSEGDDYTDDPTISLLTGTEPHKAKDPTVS

[6] = luciferase reporter signal suppression in cells – H4 neuroglioma cells, luminescence, dose response (AID 1990); type: functional, cell-based
[7] = Luminescence Cell-Based Dose Response HTS to Identify Inhibitors of 5'UTR Stem-Loop Driven Prion Protein mRNA Translation in H4 Neuroglioblastoma Cells. [Related pubchem assays: 1827 (Project Summary), 1813 (Primary HTS)]; type: functional
[8] = alpha-synuclein stem-loop luciferase translation blockers – H4 neuroglioma cells, luminescence, confirmation (AID 1988); type: functional, cell-based
[9] = target: Cytochrome P450 2C9 (Homo sapiens, UniProt P11712)
[10] = Trypanosoma cruzi growth suppression in host cells – NIH3T3 host cells, beta-gal luminescence, confirmation (AID 2044); type: functional, cell-based;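 note: intracellular parasites grown in NIH/3T3 mouse fibroblasts as host cells; luminescent beta-galactosidase reporter signal from transgenic T. cruzi replicating inside host cells; inhibitors lower the luminescence signal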
[11] = NIH3T3 cell viability loss – ATP luminescence, mouse fibroblasts, counter-screen, dose response (AID 2010); type: functional, cell-based;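 note: cells exposed to compound for about 90 hours before reading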

Sequence of Cytochrome P450 2C9 (P11712 whole entry): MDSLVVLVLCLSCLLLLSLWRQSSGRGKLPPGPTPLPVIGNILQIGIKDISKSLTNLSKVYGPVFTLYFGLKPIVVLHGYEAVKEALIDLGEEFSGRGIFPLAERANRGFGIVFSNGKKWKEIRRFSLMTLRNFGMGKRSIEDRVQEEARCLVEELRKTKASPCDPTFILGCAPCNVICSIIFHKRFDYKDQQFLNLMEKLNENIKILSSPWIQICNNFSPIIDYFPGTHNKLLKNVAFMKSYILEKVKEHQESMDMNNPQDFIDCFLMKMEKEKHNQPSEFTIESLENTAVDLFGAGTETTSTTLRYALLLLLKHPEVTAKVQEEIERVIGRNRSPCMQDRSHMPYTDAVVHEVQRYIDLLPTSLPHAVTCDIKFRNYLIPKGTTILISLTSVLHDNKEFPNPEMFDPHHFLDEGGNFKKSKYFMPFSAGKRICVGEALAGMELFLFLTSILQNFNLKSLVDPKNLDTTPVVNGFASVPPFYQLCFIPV
Sequence of Cytochrome P450 3A4 (P08684 whole entry): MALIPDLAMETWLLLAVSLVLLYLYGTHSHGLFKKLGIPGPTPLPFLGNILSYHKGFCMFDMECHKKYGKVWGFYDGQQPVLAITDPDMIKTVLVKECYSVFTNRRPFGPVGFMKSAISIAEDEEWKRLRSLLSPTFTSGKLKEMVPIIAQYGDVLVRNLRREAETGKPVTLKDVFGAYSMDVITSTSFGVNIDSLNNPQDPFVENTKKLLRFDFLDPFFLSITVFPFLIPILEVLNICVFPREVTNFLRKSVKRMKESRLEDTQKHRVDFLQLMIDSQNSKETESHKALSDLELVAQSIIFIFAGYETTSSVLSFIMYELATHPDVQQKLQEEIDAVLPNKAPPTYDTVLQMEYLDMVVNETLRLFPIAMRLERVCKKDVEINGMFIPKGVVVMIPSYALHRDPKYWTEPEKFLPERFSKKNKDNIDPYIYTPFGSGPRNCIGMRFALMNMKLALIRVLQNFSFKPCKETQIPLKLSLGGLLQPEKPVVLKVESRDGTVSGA
Sequence of Cytochrome P450 2C19 (P33261 whole entry): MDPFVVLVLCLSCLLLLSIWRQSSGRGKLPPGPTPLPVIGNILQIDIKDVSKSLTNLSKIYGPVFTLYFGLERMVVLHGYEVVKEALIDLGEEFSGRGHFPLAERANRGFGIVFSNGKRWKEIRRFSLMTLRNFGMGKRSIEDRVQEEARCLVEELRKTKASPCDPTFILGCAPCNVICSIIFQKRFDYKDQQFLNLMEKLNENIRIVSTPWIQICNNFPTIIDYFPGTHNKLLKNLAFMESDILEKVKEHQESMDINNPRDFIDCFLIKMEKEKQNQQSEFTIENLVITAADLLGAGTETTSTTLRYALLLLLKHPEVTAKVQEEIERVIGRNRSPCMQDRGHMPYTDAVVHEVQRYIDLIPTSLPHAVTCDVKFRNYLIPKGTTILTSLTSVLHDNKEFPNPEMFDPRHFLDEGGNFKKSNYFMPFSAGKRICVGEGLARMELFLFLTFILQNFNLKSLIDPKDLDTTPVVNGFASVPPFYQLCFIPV
Sequence of Cytochrome P450 2D6 (P10635 whole entry): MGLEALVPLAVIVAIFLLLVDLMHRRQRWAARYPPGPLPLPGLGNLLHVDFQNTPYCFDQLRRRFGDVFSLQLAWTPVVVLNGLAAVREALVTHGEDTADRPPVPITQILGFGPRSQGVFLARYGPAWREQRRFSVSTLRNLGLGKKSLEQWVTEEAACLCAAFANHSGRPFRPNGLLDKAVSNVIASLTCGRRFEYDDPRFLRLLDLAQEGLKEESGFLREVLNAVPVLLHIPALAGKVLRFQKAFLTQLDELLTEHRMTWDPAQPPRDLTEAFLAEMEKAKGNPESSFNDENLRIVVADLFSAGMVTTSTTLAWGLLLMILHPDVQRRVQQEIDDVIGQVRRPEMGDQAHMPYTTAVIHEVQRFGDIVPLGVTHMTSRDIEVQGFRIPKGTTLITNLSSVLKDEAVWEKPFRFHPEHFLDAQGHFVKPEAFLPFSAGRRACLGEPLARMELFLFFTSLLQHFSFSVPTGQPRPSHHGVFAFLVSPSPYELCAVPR

O=C(c1ccncc1)N1CCC2(CC1)CCN(c1ccccn1)CC2
AC50 ([1]; read-out: AC50): 1 µM (inconclusive) | AC50 [2]: 31.6 µM (inconclusive) | AC50 [3]: 12.6 µM (inconclusive)

CO[C@@H]1/C=C\CC(=O)N[C@@H](C)C(=O)OC[C@@H](OC)[C@H](C)/C=C\CC(=O)OC[C@H]1C
AC50 [4]: 3.98 µM (inconclusive)

CC[C@@]1(O)C(=O)COc2c1cc1n(c2=O)Cc2c-1nc1cccc(C(C)C)c1c2[Si](C)(C)C
AC50 [4]: 15.8 µM (inconclusive)

O=C(Nc1cccc(F)c1)N1CCC2(CC1)CCN(C(=O)c1ccncc1)CC2
AC50 [4]: 12.6 µM (inconclusive)

Cc1noc(C)c1-c1cncnc1NCc1cccnc1
AC50 ([1]; read-out: AC50): 15.8 µM (inconclusive)

Cc1ccc2c(c1)N(C(=O)CCC(=O)N1CCC3(CC1)OCCO3)CCO2
EC50 [5]: > 195 µM (not active)

O=C(Nc1ccccn1)c1cc(-c2cccc(Cl)c2)nc2ccccc12
EC50 [6]: > 120 µM (not active) | EC50 [7]: > 120 µM (not active) | EC50 [8]: 15.3 µM (active)

CCOc1ccc(C2=Nn3c(nnc3-c3ccco3)SC2)cc1
AC50 [4]: 15.8 µM (inconclusive)

COc1ccc(CCN=C(NS(=O)(=O)c2ccc(Cl)cc2)c2ccccc2)cc1
EC50 [6]: > 120 µM (not active) | EC50 [7]: > 120 µM (not active) | EC50 [8]: > 120 µM (not active)

CCNc1ncc2nc(-c3cccs3)c(=O)n(Cc3cccs3)c2n1
AC50 ([1]; read-out: AC50): 10 µM (inconclusive) | AC50 [9]: 39.8 µM (inconclusive)

C[n+]1cccc(CNC(=O)C=NO)c1
AC50 ([1]; read-out: AC50): 10 µM (inconclusive)

COC(=O)c1c(C)ccc2c(O)c3c(cc12)C(=O)c1c2c(cc(O)c1C3=O)[C@@]1(C)O[C@@](C)(O2)[C@@H](O)[C@H](N(C)C)[C@H]1O
AC50 ([1]; read-out: AC50): 3.98 µM (inconclusive) | AC50 [3]: 5.01 µM (inconclusive) | AC50 [9]: 2.51 µM (inconclusive)

COc1ccc(OC)c(N(CC(=O)N2CCc3ccccc3C2)S(C)(=O)=O)c1
AC50 ([1]; read-out: AC50): 11.2 µM (inconclusive) | AC50 [3]: 15.8 µM (inconclusive) | AC50 [9]: 12.6 µM (inconclusive)

CCCCN1CN=C(S)N(c2ccc(C(=O)OCC)cc2)C1
EC50 [5]: > 195 µM (not active)

Cc1ccc(C)c(NC(=S)N(CCc2nc3cc(C)c(C)cc3[nH]2)Cc2cccnc2)c1
EC50 [10]: 0.813 µM (active) | EC50 [11]: > 60 µM (not active) | AC50 ([1]; read-out: AC50): 2 µM (inconclusive) | AC50 [3]: 4.47 µM (inconclusive)

Cc1cc(C)n(-c2nc3c(c(=O)[nH]c(=O)n3C)n2CC(O)COc2ccc(Cl)cc2Cl)n1 (configuration not stated)
EC50 [6]: 11.6 µM (active) | EC50 [7]: 10.3 µM (active) | EC50 [8]: 9.24 µM (active)

Cc1ccccc1CS(=O)(=O)CCC(=O)NCCCN1CCN(c2ccccc2F)CC1
AC50 [1]: inconclusive | AC50 [9]: 5.62 µM (inconclusive)

O=C1N=C(N2CCOCC2)S/C1=C/c1cccs1
AC50 ([1]; read-out: AC50): 25.1 µM (inconclusive)

Cc1ccc(C(=O)Nc2cccnc2Oc2ccc(Cl)cc2)cc1
EC50 [6]: 17.6 µM (active) | EC50 [7]: > 120 µM (not active) | EC50 [8]: > 120 µM (not active)

CN(C)Cc1ccccc1-c1nccc(N(C)Cc2ccco2)n1
AC50 [4]: 31.6 µM (inconclusive)

O=C(CCn1nc(-c2ccc(Cl)cc2)c2ccccc2c1=O)NCCN1CCOCC1
AC50 ([1]; read-out: AC50): 28.2 µM (inconclusive) | AC50 [2]: 15.8 µM (inconclusive) | AC50 [9]: 17.8 µM (inconclusive)

COc1cc(Br)cc(/C=N/N(CCO)C2=NS(=O)(=O)c3ccccc32)c1OC
EC50 [6]: 18.5 µM (active) | EC50 [7]: > 120 µM (not active) | EC50 [8]: 18.1 µM (active)

O=C(N/N=C/C=C/c1ccccc1)c1[nH]nc2c1CCC2
EC50 [6]: 10.6 µM (inconclusive) | EC50 [8]: 3.42 µM (active)

COc1cc2c(cc1OC)[C@]13CC[N@+]4(C)CC5=CCO[C@H]6CC(=O)N2[C@@H]1[C@@H]6[C@@H]5C[C@]34O
AC50 [4]: 1 µM (inconclusive)

C/C(=N\NC(=O)c1cccc(C)c1)c1cccc(NC(=O)c2ccco2)c1
AC50 ([1]; read-out: AC50): 39.8 µM (inconclusive) | AC50 [3]: 14.1 µM (inconclusive) | AC50 [9]: 39.8 µM (inconclusive)

Cc1cccc(Nc2ncccc2C(=O)O)c1C [NIXYLIC ACID]
EC50 [5]: > 195 µM (not active)
